Laboratory results published in PubChem BioAssay AID248 (DTP/NCI, 2004).
Values joined by “and” are separate entries in the source; they are usually repeats but may differ in a detail not shown here. Equal entries are not always repeated. Inconclusive results and toxic doses are left out.

System: L1210 leukemia ip in BDF1 mice, survival T/C
Assay: NCI In Vivo Anticancer Drug Screen. Data for tumor model L1210 Leukemia (intraperitoneal) in B6D2F1 (BDF1) mice
Conditions: endpoint: mean survival time, higher = longer survival
Method in brief: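 Each compound was tested against a transplantable tumor grown in mice. The endpoint was survival, with treated animals benchmarked against vehicle controls as a simple ratio.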

What does the source list for `O=C(Nc1ccc(C2=NCCCN2)cc1)c1ccc(NC(=O)c2ccc(C3=NCCCN3)cc2)cc1`?
T/C (dose: 0.03 mg/kg/injection, schedule: Q01DX Z (iv), vehicle: water): 107 % of control; T/C (dose: 0.06 mg/kg/injection, schedule: Q01DX Z (iv), vehicle: water): 102 % of control; T/C (dose: 0.12 mg/kg/injection, schedule: Q01DX Z (ip), vehicle: carboxymethylcellulose (CMC)): 102 % of control; T/C (dose: 0.12 mg/kg/injection, schedule: Q01DX Z (iv), vehicle: water): 113 % of control; T/C (dose: 0.2 mg/kg/injection, schedule: Q01DX006 (iv), vehicle: carboxymethylcellulose (CMC)): 119 % of control; T/C (dose: 0.25 mg/kg/injection, schedule: Q01DX Z (ip), vehicle: carboxymethylcellulose (CMC)): 103 % of control; T/C (dose: 0.25 mg/kg/injection, schedule: Q01DX Z (iv), vehicle: water): 94 % of control; T/C (dose: 0.4 mg/kg/injection, schedule: Q01DX006 (iv), vehicle: carboxymethylcellulose (CMC)): 113 % of control; T/C (dose: 0.5 mg/kg/injection, schedule: Q01DX Z (ip), vehicle: carboxymethylcellulose (CMC)): 107 % of control; T/C (dose: 0.5 mg/kg/injection, schedule: Q01DX Z (sc), vehicle: saline): 108 % of control; T/C (dose: 0.6 mg/kg/injection, schedule: Q01DX006 (iv), vehicle: carboxymethylcellulose (CMC)): 120 % of control; T/C (dose: 0.8 mg/kg/injection, schedule: Q01DX006 (iv), vehicle: carboxymethylcellulose (CMC)): 111 % of control; T/C (dose: 0.94 mg/kg/injection, schedule: Q01DX Z (ip), vehicle: saline): 120 % of control; T/C (dose: 1.0 mg/kg/injection, schedule: Q01DX Z (sc), vehicle: saline): 110 % of control; T/C (dose: 1.76 mg/kg/injection, schedule: Q01DX015 (ip), vehicle: carboxymethylcellulose (CMC)): 154 % of control; T/C (dose: 2.0 mg/kg/injection, schedule: Q01DX010 (ip), vehicle: other): 160 % of control and 162 % of control; T/C (dose: 2.0 mg/kg/injection, schedule: Q01DX Z (sc), vehicle: saline): 110 % of control; T/C (dose: 2.6 mg/kg/injection, schedule: Q01DX015 (ip), vehicle: carboxymethylcellulose (CMC)): 230 % of control; T/C (dose: 3.75 mg/kg/injection, schedule: Q01DX Z (ip), vehicle: saline): 245 % of control; T/C (dose: 4.0 mg/kg/injection, schedule: Q01DX010 (ip), vehicle: other): 215 % of control and 217 % of control and 251 % of control; T/C (dose: 4.0 mg/kg/injection, schedule: Q01DX015 (ip), vehicle: carboxymethylcellulose (CMC)): 305 % of control; T/C (dose: 4.0 mg/kg/injection, schedule: Q01DX Z (sc), vehicle: saline): 156 % of control and 195 % of control; T/C (dose: 6.0 mg/kg/injection, schedule: Q01DX015 (ip), vehicle: carboxymethylcellulose (CMC)): 319 % of control; T/C (dose: 8.0 mg/kg/injection, schedule: Q01DX010 (ip), vehicle: other): 245 % of control and 258 % of control and 345 % of control; T/C (dose: 8.0 mg/kg/injection, schedule: Q01DX Z (sc), vehicle: saline): 259 % of control; T/C (dose: 9.0 mg/kg/injection, schedule: Q01DX015 (ip), vehicle: carboxymethylcellulose (CMC)): 180 % of control; T/C (dose: 10.0 mg/kg/injection, schedule: Q01DX010 (sc), vehicle: saline): 106 % of control; T/C (dose: 10.0 mg/kg/injection, schedule: Q02DX004 (im), vehicle: olive oil, sesame oil, peanut oil): 154 % of control and 178 % of control; T/C (dose: 14.0 mg/kg/injection, schedule: Q01DX001 (ip), vehicle: other): 156 % of control; T/C (dose: 16.0 mg/kg/injection, schedule: Q01DX010 (ip), vehicle: other): 97 % of control and 98 % of control and 100 % of control; T/C (dose: 16.0 mg/kg/injection, schedule: Q01DX Z (sc), vehicle: carboxymethylcellulose (CMC)): 102 % of control; T/C (dose: 16.0 mg/kg/injection, schedule: Q01DX Z (sc), vehicle: saline): 124 % of control; T/C (dose: 20.0 mg/kg/injection, schedule: Q01DX001 (im), vehicle: steriod suspending solution): 110 % of control; T/C (dose: 20.0 mg/kg/injection, schedule: Q01DX010 (sc), vehicle: olive oil, sesame oil, peanut oil): 87 % of control; T/C (dose: 20.0 mg/kg/injection, schedule: Q01DX010 (sc), vehicle: saline): 87 % of control; T/C (dose: 20.0 mg/kg/injection, schedule: Q02DX004 (im), vehicle: olive oil, sesame oil, peanut oil): 250 % of control and 285 % of control; T/C (dose: 21.0 mg/kg/injection, schedule: Q01DX001 (ip), vehicle: carboxymethylcellulose (CMC)): 156 % of control; T/C (dose: 21.0 mg/kg/injection, schedule: Q01DX001 (ip), vehicle: saline): 159 % of control and 172 % of control; T/C (dose: 32.0 mg/kg/injection, schedule: Q01DX001 (ip), vehicle: carboxymethylcellulose (CMC)): 172 % of control; T/C (dose: 32.0 mg/kg/injection, schedule: Q01DX001 (ip), vehicle: other): 202 % of control; T/C (dose: 32.0 mg/kg/injection, schedule: Q01DX001 (ip), vehicle: saline): 196 % of control; T/C (dose: 40.0 mg/kg/injection, schedule: Q01DX001 (im), vehicle: steriod suspending solution): 173 % of control; T/C (dose: 40.0 mg/kg/injection, schedule: Q02DX004 (im), vehicle: olive oil, sesame oil, peanut oil): 100 % of control and 86 % of control; T/C (dose: 48.0 mg/kg/injection, schedule: Q01DX001 (ip), vehicle: carboxymethylcellulose (CMC)): 219 % of control; T/C (dose: 48.0 mg/kg/injection, schedule: Q01DX001 (ip), vehicle: saline): 243 % of control and 247 % of control; T/C (dose: 62.0 mg/kg/injection, schedule: Q01DX Z (oral), vehicle: carboxymethylcellulose (CMC)): 102 % of control; T/C (dose: 62.5 mg/kg/injection, schedule: Q01DX010 (oral), vehicle: other): 105 % of control; T/C (dose: 72.0 mg/kg/injection, schedule: Q01DX001 (ip), vehicle: saline): 103 % of control and 229 % of control; T/C (dose: 90.0 mg/kg/injection, schedule: Q#A X Z (oral), vehicle: carboxymethylcellulose (CMC)): 100 % of control; T/C (dose: 125.0 mg/kg/injection, schedule: Q01DX010 (oral), vehicle: other): 177 % of control; T/C (dose: 125.0 mg/kg/injection, schedule: Q01DX Z (oral), vehicle: carboxymethylcellulose (CMC)): 105 % of control; T/C (dose: 125.0 mg/kg/injection, schedule: Q01DX Z (oral), vehicle: saline): 92 % of control; T/C (dose: 135.0 mg/kg/injection, schedule: Q#A X Z (oral), vehicle: carboxymethylcellulose (CMC)): 91 % of control; T/C (dose: 180.0 mg/kg/injection, schedule: Q01DX Z (oral), vehicle: carboxymethylcellulose (CMC)): 108 % of control; T/C (dose: 202.5 mg/kg/injection, schedule: Q#A X Z (oral), vehicle: carboxymethylcellulose (CMC)): 115 % of control; T/C (dose: 250.0 mg/kg/injection, schedule: Q01DX010 (oral), vehicle: other): 194 % of control; T/C (dose: 250.0 mg/kg/injection, schedule: Q01DX Z (oral), vehicle: carboxymethylcellulose (CMC)): 120 % of control; T/C (dose: 250.0 mg/kg/injection, schedule: Q01DX Z (oral), vehicle: saline): 89 % of control; T/C (dose: 270.0 mg/kg/injection, schedule: Q01DX Z (oral), vehicle: carboxymethylcellulose (CMC)): 102 % of control; T/C (dose: 405.0 mg/kg/injection, schedule: Q01DX Z (oral), vehicle: carboxymethylcellulose (CMC)): 120 % of control; T/C (dose: 500.0 mg/kg/injection, schedule: Q01DX010 (oral), vehicle: other): 122 % of control; T/C (dose: 500.0 mg/kg/injection, schedule: Q01DX Z (oral), vehicle: saline): 113 % of control; T/C (dose: 540.0 mg/kg/injection, schedule: Q03DX Z (oral), vehicle: carboxymethylcellulose (CMC)): 98 % of control; T/C (dose: 800.0 mg/kg/injection, schedule: Q03DX Z (oral), vehicle: carboxymethylcellulose (CMC)): 112 % of control; T/C (dose: 1200.0 mg/kg/injection, schedule: Q03DX Z (oral), vehicle: carboxymethylcellulose (CMC)): 120 % of control; T/C (dose: 1200.0 mg/kg/injection, schedule: Q07DX Z (oral), vehicle: carboxymethylcellulose (CMC)): 95 % of control; T/C (dose: 1800.0 mg/kg/injection, schedule: Q07DX Z (oral), vehicle: carboxymethylcellulose (CMC)): 106 % of control; T/C (dose: 2700.0 mg/kg/injection, schedule: Q07DX Z (oral), vehicle: carboxymethylcellulose (CMC)): 124 % of control

What does the source list for `O=[N+]([O-])/C=C/c1ccc([N+](=O)[O-])cc1Cl`?
T/C (dose: 12.5 mg/kg/injection, schedule: Q01DX009 (ip), vehicle: saline): 101 % of control; T/C (dose: 25.0 mg/kg/injection, schedule: Q01DX009 (ip), vehicle: saline): 103 % of control; T/C (dose: 50.0 mg/kg/injection, schedule: Q01DX001 (ip), vehicle: saline): 100 % of control; T/C (dose: 50.0 mg/kg/injection, schedule: Q01DX009 (ip), vehicle: saline): 108 % of control; T/C (dose: 50.0 mg/kg/injection, schedule: Q04DX003 (ip), vehicle: saline with Tween-80): 119 % of control; T/C (dose: 100.0 mg/kg/injection, schedule: Q01DX001 (ip), vehicle: saline): 93 % of control; T/C (dose: 200.0 mg/kg/injection, schedule: Q01DX001 (ip), vehicle: saline): 102 % of control

What does the source list for `O=C1NCCCN1C1OC(CO)C(O)C1O` (configuration not stated)?
T/C (dose: 100.0 mg/kg/injection, schedule: Q01DX005 (ip), vehicle: saline): 107 % of control; T/C (dose: 200.0 mg/kg/injection, schedule: Q01DX005 (ip), vehicle: saline): 104 % of control
